Source: patent US7803930B2, “Antisense modulation of apolipoprotein B-expression” (Isis Pharmaceuticals, Inc., priority 2002, dated 2010)
In the oligonucleotide strings, read from the 5' end, every base follows the letter of its sugar. An asterisk marks phosphorothioate; unmarked linkages are phosphodiester. Other units and linkages are bracketed, terminal groups are in braces. A string of capitals states the bases alone. e = 2'-O-(2-methoxyethyl) (MOE); [5mC] = 5-methylcytosine; d = 2'-deoxy (DNA)

System: human apolipoprotein B mRNA
Experiment: Inhibition of human apolipoprotein B mRNA levels in HepG2 cells, quantitative real-time PCR
Assay type: cell-based
Details: HepG2 cells treated with 150 nM of compound; averages from two experiments; quantitative real-time PCR
How it was run: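 HepG2 cells at 80% confluency were transfected with antisense oligonucleotide using 3.75 μg/mL Lipofectin in Opti-MEM for 4-7 h and harvested 16-24 h after treatment. Apolipoprotein B mRNA was measured by real-time RT-PCR and normalized to GAPDH or RiboGreen total RNA. Percent inhibition came from untreated-control standard curves.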

| Substance | % INHIB (inhibition of human apolipoprotein B mRNA levels) [%] |
| --- | --- |
| 301028 (eG*eG*e[5mC]*eT*e[5mC]*dA*d[5mC]*dT*dG*dT*dA*dT*dG*dG*dT*eT*eT*eT*eA*eT; antisense) [compound 301028] | 93 |
| 301029 (eG*eG*e[5mC]*eT*eG*dG*d[5mC]*dT*d[5mC]*dA*d[5mC]*dT*dG*dT*dA*eT*eG*eG*eT*eT; antisense) [compound 301029] | 90 |
| 301030 (eA*eG*eG*e[5mC]*eT*dG*dG*d[5mC]*dT*d[5mC]*dA*d[5mC]*dT*dG*dT*eA*eT*eG*eG*eT; antisense) [compound 301030] | 90 |
| 301031 (eA*eA*eG*eG*e[5mC]*dT*dG*dG*d[5mC]*dT*d[5mC]*dA*d[5mC]*dT*dG*eT*eA*eT*eG*eG; antisense) [compound 301031] | 90 |
| 301037 (e[5mC]*eA*eG*e[5mC]*eT*dT*dT*dG*dG*dT*dG*d[5mC]*dA*dG*dG*eT*e[5mC]*e[5mC]*eA*eG; antisense) [compound 301037] | 90 |
| 301038 (eG*e[5mC]*e[5mC]*eA*eG*d[5mC]*dT*dT*dT*dG*dG*dT*dG*d[5mC]*dA*eG*eG*eT*e[5mC]*e[5mC]; antisense) [compound 301038] | 86 |
| 301045 (eA*eG*e[5mC]*eA*eA*dA*dA*dT*dA*dA*d[5mC]*dT*d[5mC]*dA*dG*eA*eT*e[5mC]*e[5mC]*eT; antisense) [compound 301045] | 90 |

Same assay, conditions: Table 19 dose response; HepG2 cells, 37 nM; normalized to untreated control

| Substance | % inhibition 37 nM [%] |
| --- | --- |
| 301028 (eG*eG*e[5mC]*eT*e[5mC]*dA*d[5mC]*dT*dG*dT*dA*dT*dG*dG*dT*eT*eT*eT*eA*eT; antisense) [compound 301028] | 70 |
| 301029 (eG*eG*e[5mC]*eT*eG*dG*d[5mC]*dT*d[5mC]*dA*d[5mC]*dT*dG*dT*dA*eT*eG*eG*eT*eT; antisense) [compound 301029] | 54 |
| 301030 (eA*eG*eG*e[5mC]*eT*dG*dG*d[5mC]*dT*d[5mC]*dA*d[5mC]*dT*dG*dT*eA*eT*eG*eG*eT; antisense) [compound 301030] | 64 |
| 301031 (eA*eA*eG*eG*e[5mC]*dT*dG*dG*d[5mC]*dT*d[5mC]*dA*d[5mC]*dT*dG*eT*eA*eT*eG*eG; antisense) [compound 301031] | 61 |
| 301037 (e[5mC]*eA*eG*e[5mC]*eT*dT*dT*dG*dG*dT*dG*d[5mC]*dA*dG*dG*eT*e[5mC]*e[5mC]*eA*eG; antisense) [compound 301037] | 73 |
| 301045 (eA*eG*e[5mC]*eA*eA*dA*dA*dT*dA*dA*d[5mC]*dT*d[5mC]*dA*dG*eA*eT*e[5mC]*e[5mC]*eT; antisense) [compound 301045] | 77 |

Same assay, conditions: Table 19 dose response; HepG2 cells, 75 nM; normalized to untreated control

| Substance | % inhibition 75 nM [%] |
| --- | --- |
| 301028 (eG*eG*e[5mC]*eT*e[5mC]*dA*d[5mC]*dT*dG*dT*dA*dT*dG*dG*dT*eT*eT*eT*eA*eT; antisense) [compound 301028] | 79 |
| 301029 (eG*eG*e[5mC]*eT*eG*dG*d[5mC]*dT*d[5mC]*dA*d[5mC]*dT*dG*dT*dA*eT*eG*eG*eT*eT; antisense) [compound 301029] | 67 |
| 301030 (eA*eG*eG*e[5mC]*eT*dG*dG*d[5mC]*dT*d[5mC]*dA*d[5mC]*dT*dG*dT*eA*eT*eG*eG*eT; antisense) [compound 301030] | 75 |
| 301031 (eA*eA*eG*eG*e[5mC]*dT*dG*dG*d[5mC]*dT*d[5mC]*dA*d[5mC]*dT*dG*eT*eA*eT*eG*eG; antisense) [compound 301031] | 82 |
| 301037 (e[5mC]*eA*eG*e[5mC]*eT*dT*dT*dG*dG*dT*dG*d[5mC]*dA*dG*dG*eT*e[5mC]*e[5mC]*eA*eG; antisense) [compound 301037] | 85 |
| 301045 (eA*eG*e[5mC]*eA*eA*dA*dA*dT*dA*dA*d[5mC]*dT*d[5mC]*dA*dG*eA*eT*e[5mC]*e[5mC]*eT; antisense) [compound 301045] | 86 |

Same assay, conditions: Table 19 dose response; HepG2 cells, 150 nM; normalized to untreated control

| Substance | % inhibition 150 nM [%] |
| --- | --- |
| 301028 (eG*eG*e[5mC]*eT*e[5mC]*dA*d[5mC]*dT*dG*dT*dA*dT*dG*dG*dT*eT*eT*eT*eA*eT; antisense) [compound 301028] | 85 |
| 301029 (eG*eG*e[5mC]*eT*eG*dG*d[5mC]*dT*d[5mC]*dA*d[5mC]*dT*dG*dT*dA*eT*eG*eG*eT*eT; antisense) [compound 301029] | 79 |
| 301030 (eA*eG*eG*e[5mC]*eT*dG*dG*d[5mC]*dT*d[5mC]*dA*d[5mC]*dT*dG*dT*eA*eT*eG*eG*eT; antisense) [compound 301030] | 87 |
| 301031 (eA*eA*eG*eG*e[5mC]*dT*dG*dG*d[5mC]*dT*d[5mC]*dA*d[5mC]*dT*dG*eT*eA*eT*eG*eG; antisense) [compound 301031] | 92 |
| 301037 (e[5mC]*eA*eG*e[5mC]*eT*dT*dT*dG*dG*dT*dG*d[5mC]*dA*dG*dG*eT*e[5mC]*e[5mC]*eA*eG; antisense) [compound 301037] | 89 |
| 301045 (eA*eG*e[5mC]*eA*eA*dA*dA*dT*dA*dA*d[5mC]*dT*d[5mC]*dA*dG*eA*eT*e[5mC]*e[5mC]*eT; antisense) [compound 301045] | 94 |

Same assay, conditions: Table 19 dose response; HepG2 cells, 300 nM; normalized to untreated control

| Substance | % inhibition 300 nM [%] |
| --- | --- |
| 301028 (eG*eG*e[5mC]*eT*e[5mC]*dA*d[5mC]*dT*dG*dT*dA*dT*dG*dG*dT*eT*eT*eT*eA*eT; antisense) [compound 301028] | 92 |
| 301029 (eG*eG*e[5mC]*eT*eG*dG*d[5mC]*dT*d[5mC]*dA*d[5mC]*dT*dG*dT*dA*eT*eG*eG*eT*eT; antisense) [compound 301029] | 85 |
| 301030 (eA*eG*eG*e[5mC]*eT*dG*dG*d[5mC]*dT*d[5mC]*dA*d[5mC]*dT*dG*dT*eA*eT*eG*eG*eT; antisense) [compound 301030] | 92 |
| 301031 (eA*eA*eG*eG*e[5mC]*dT*dG*dG*d[5mC]*dT*d[5mC]*dA*d[5mC]*dT*dG*eT*eA*eT*eG*eG; antisense) [compound 301031] | 96 |
| 301037 (e[5mC]*eA*eG*e[5mC]*eT*dT*dT*dG*dG*dT*dG*d[5mC]*dA*dG*dG*eT*e[5mC]*e[5mC]*eA*eG; antisense) [compound 301037] | 96 |
| 301045 (eA*eG*e[5mC]*eA*eA*dA*dA*dT*dA*dA*d[5mC]*dT*d[5mC]*dA*dG*eA*eT*e[5mC]*e[5mC]*eT; antisense) [compound 301045] | 98 |

System: human apolipoprotein B mRNA
Experiment: Inhibition of apolipoprotein B mRNA by dsRNAs in HepG2 cells
Assay type: cell-based
Details: 150 nM with 3.75 μg/mL LIPOFECTIN
Protocol: In accordance with the present invention, a series of nucleic acid duplexes comprising the antisense compounds of the present invention and their complements were designed to target apolipoprotein B and are shown in Table 42. All compounds in Table 42 are oligoribonucleotides 20 nucleotides in length with phosphodiester internucleoside linkages (backbones) throughout the compound. The compounds were prepared with blunt ends. […] These sequences are shown to contain uracil (U) but one of skill in the art will appreciate that uracil (U) is generally replaced by thymine (T) in DNA sequences. “Targer site” indicates the first (5′-most) nucleotide number on the particular target sequence to which the compound binds. A subset of the compounds in Table 42 are the RNA equivalents of DNA antisense oligonucleotides described herein, and, where applicable, this is noted by the ISIS # of the DNA oligonucleotide in the column “RNA equivalent of ISIS #”.
The dsRNA compounds in Table 42 were tested for their effects on human apolipoprotein mRNA in HepG2 cells. HepG2 cells were treated with 100 nM of dsRNA compounds mixed with 5 μg/mL LIPOFECTIN (Invitrogen Corporation, Carlsbad, Calif.) for a period of 16 hours. In the same experiment, HepG2 cells were also treated with 150 nM of subset of the antisense oligonucleotides described herein mixed with 3.75 μg/mL LIPOFECTIN; these compounds are listed in Table 43. Control oligonucleotides included ISIS 18078 ([…], SEQ ID NO: 888). ISIS 18078 is a chimeric oligonucleotide (“gapmer”) 20 nucleotides in length, composed of a central “gap” region consisting of 9 2′-deoxynucleotides, which is flanked on the 5′ and 3′ ends by a five-nucleotide “wing” and a six-nucleotide “wing”, respectively. The wings are composed of 2′-methoxyethyl (2′-MOE)nucleotides. The internucleoside (backbone) linkages are phosphorothioate (P═S) throughout the oligonucleotide. All cytidines are 5-methylcytidines. The duplex of ISIS 263188 ([…], SEQ ID NO: 889) and its complement was also used as a control. ISIS 263188 is an oligoribonucleotide 21 nucleotides in length with the 2 nucleotides on the 3′ end being oligodeoxyribonucleotides (TT) and with phosphodiester internucleoside linkages (backbones) throughout the compound.
Cells were treated for 4 hours, after which human apolipoprotein B mRNA expression was measured as described by examples herein. Results were normalized to untreated control cells, which were not treated with LIPOFECTIN or oligonucleotide.

| Substance | % Inhibition of apolipoprotein B mRNA [%] |
| --- | --- |
| 301028 (eG*eG*e[5mC]*eT*e[5mC]*dA*d[5mC]*dT*dG*dT*dA*dT*dG*dG*dT*eT*eT*eT*eA*eT; antisense) [compound 301028] | 85 |
| 301029 (eG*eG*e[5mC]*eT*eG*dG*d[5mC]*dT*d[5mC]*dA*d[5mC]*dT*dG*dT*dA*eT*eG*eG*eT*eT; antisense) [compound 301029] | 77 |
| 301030 (eA*eG*eG*e[5mC]*eT*dG*dG*d[5mC]*dT*d[5mC]*dA*d[5mC]*dT*dG*dT*eA*eT*eG*eG*eT; antisense) [compound 301030] | 70 |
| 301031 (eA*eA*eG*eG*e[5mC]*dT*dG*dG*d[5mC]*dT*d[5mC]*dA*d[5mC]*dT*dG*eT*eA*eT*eG*eG; antisense) [compound 301031] | 73 |
| 301037 (e[5mC]*eA*eG*e[5mC]*eT*dT*dT*dG*dG*dT*dG*d[5mC]*dA*dG*dG*eT*e[5mC]*e[5mC]*eA*eG; antisense) [compound 301037] | 80 |
| 301038 (eG*e[5mC]*e[5mC]*eA*eG*d[5mC]*dT*dT*dT*dG*dG*dT*dG*d[5mC]*dA*eG*eG*eT*e[5mC]*e[5mC]; antisense) [compound 301038] | 84 |
| 301045 (eA*eG*e[5mC]*eA*eA*dA*dA*dT*dA*dA*d[5mC]*dT*d[5mC]*dA*dG*eA*eT*e[5mC]*e[5mC]*eT; antisense) [compound 301045] | 77 |
